System: 695427-040-R-J1-PDC complex spheroid viability
Assay: Anticancer human tumor 695427-040-R-J1-PDC patient-derived colon adenocarcinoma cell line growth inhibition [POLQ]
Settings: for IC50: curve of first compound; for viability, T/C: stronger effect = lower value
Experimental: Multicellular complex tumor spheroid response to Polymerase (POL) inhibitors (novobiocin, ART-558, RP6685) in combination with a variety of drugs and investigational agents in selected tumor cell lines
The POL inhibitors (novobiocin, ART-558, and RP6685) were evaluated both individually and in combination with standard of care and investigational anticancer small molecules within a complex spheroid model of solid tumors. . Complex spheroids include a stromal component modeled by human endothelial cells (HUVEC) and fibroblasts modeled by human mesenchymal stem cells (MSCs). The concentration ranges selected for each drug and investigational agent were based upon clinically achievable concentrations if the clinical Cmax of the agent was known.
Compounds. The drugs and investigational agents: novobiocin (NSC847541), ART-558 (NSC835418), RP-6685 (NSC848927), peposertib (NSC802822), ceralasertib (NSC780249), elimusertib (NSC800525), camonsertib (NSC841442), AZD-1390 (NSC803789), olaparib (NSC753686), talazoparib (NSC767125), rucaparib (NSC756644), sotorasib (NSC818433), MRTX-1133 (NSC836407), SN-38 (NSC673596), topotecan (NSC609699), epotoside (NSC141540), doxorubicin (NSC123127), gemcitabine (NSC613327), 5-fluorouracil (NSC19893), paclitaxel (NSC125973), vemurafenib (NSC761431), MSA-2 (NSC828583), SN-011 (NSC837082), adavosertib (NSC754352), prexasertib (NSC758257), carboplatin (NSC241240) and oxaliplatin (NSC266046), were obtained from the National Cancer Institute (NCI) Developmental Therapeutics Program Chemical Repository (21). The FDA-approved anticancer drug set is available from the Developmental Therapeutics Program at https://dtp.cancer.gov/organization/dscb/obtaining/. […] The stock solutions were prepared in dimethyl sulfoxide (DMSO, Sigma-Aldrich, St. Louis, MO, cat. D2650), except for the platinum compounds which were prepared in saline (Quality Biological, Gaithersburg, MD, cat. 114-055-101), at 800-fold the tested concentration and stored at -70 degrees C prior to their use. All drugs and investigational agents were tested over a range starting from a high concentration at or near the clinical Cmax and decreasing in half-log increments. If the clinical Cmax for an agent had not been determined, the highest concentration tested was 10 microM, except for SN-38, which was tested at a high concentration of 1 microM.
Cell Culture. All cells were maintained in an incubator at 37 degrees C and 5% CO2 with 95% humidity. The PDC lines were cultured according to standard operating procedures established by the NCI PDMR (https://pdmr.cancer.gov). Table 3 of the manuscript, lists the cell lines along with the number of the three cell types plated to form the mct-spheroids and media for tumor cell growth. After thawing, all PDC lines, except 997537-175-T-J1-PDC and 415267-285-R-J2-PDC, were cultured in Matrigel-coated flasks prepared with a working solution of 1X Ham's F-12 nutrient mix, without supplementation (Thermo Fisher Scientific, cat. 11765054), 100 U/mL penicillin-streptomycin (Thermo Fisher Scientific, cat. 15140122), and 2.5% Matrigel (Corning Inc., Corning, NY, cat. 354248) for the first three passages. The two PDC lines 997537-175-T-J1-PDC and 415267-285-R-J2-PDC were cultured on uncoated flasks. The 857933-349-R-J2-PDC line was cultured in 6C/Colon 1B media containing advanced DMEM/F-12 (Thermo Fisher Scientific, cat. 12634028), 10 mM HEPES (Thermo Fisher Scientific, cat. 15630080), 1X GlutaMAX supplement (Thermo Fisher Scientific, cat. 35050061), 0.1 mg/mL primocin (InvivoGen, San Diego, CA, cat. ant-pm-2), 10% defined fetal bovine serum, heat inactivated (HyClone Laboratories Inc., Logan, UT, cat. SH30070.03HI), 50% L-WRN conditioned media (ATCC, cat. CRL-3276), 1.25 mM N-Acetyl-L-cysteine (Sigma-Aldrich, cat. A9165), 10 mM nicotinamide (Sigma-Aldrich, cat. N0636), 1X B-27 supplement (Thermo Fisher Scientific, cat. 17504044), 1X N-2 supplement (Thermo Fisher Scientific, cat. […]

[1] = second compound 0.0316 µM, first compound 0.0316 µM
[2] = second compound 0.0316 µM, first compound 0.1 µM
[3] = second compound 0.0316 µM, first compound 0.316 µM
[4] = second compound 0.0316 µM, first compound 1 µM
[5] = second compound 0.0316 µM, first compound 3.16 µM
[6] = second compound 0.0316 µM, first compound 10 µM
[7] = second compound 0.1 µM, first compound 0.0316 µM
[8] = second compound 0.1 µM, first compound 0.1 µM
[9] = second compound 0.1 µM, first compound 0.316 µM
[10] = second compound 0.1 µM, first compound 1 µM
[11] = second compound 0.1 µM, first compound 3.16 µM
[12] = second compound 0.1 µM, first compound 10 µM
[13] = second compound 0.316 µM, first compound 0.0316 µM
[14] = second compound 0.316 µM, first compound 0.1 µM
[15] = second compound 0.316 µM, first compound 0.316 µM
[16] = second compound 0.316 µM, first compound 1 µM
[17] = second compound 0.316 µM, first compound 3.16 µM
[18] = second compound 0.316 µM, first compound 10 µM
[19] = second compound 1 µM, first compound 0.0316 µM
[20] = second compound 1 µM, first compound 0.1 µM
[21] = second compound 1 µM, first compound 0.316 µM
[22] = second compound 1 µM, first compound 1 µM
[23] = second compound 1 µM, first compound 3.16 µM
[24] = second compound 1 µM, first compound 10 µM
[25] = second compound 3.16 µM, first compound 0.0316 µM
[26] = second compound 3.16 µM, first compound 0.1 µM
[27] = second compound 3.16 µM, first compound 0.316 µM
[28] = second compound 3.16 µM, first compound 1 µM
[29] = second compound 3.16 µM, first compound 3.16 µM
[30] = second compound 3.16 µM, first compound 10 µM
[31] = second compound 10 µM, first compound 0.0316 µM
[32] = second compound 10 µM, first compound 0.1 µM
[33] = second compound 10 µM, first compound 0.316 µM
[34] = second compound 10 µM, first compound 1 µM
[35] = second compound 10 µM, first compound 3.16 µM
[36] = second compound 10 µM, first compound 10 µM
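Further: spheroids exposed to compounds for seven days.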
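Wherever viability, T/C is given: 100% = DMSO vehicle control viability.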

## CCc1cc2c(N3CCc4c(cc(Cn5ccnc5)cc4-c4cn(C)nc4C(F)(F)F)C3=O)cc(C)nc2c(OC)n1 + COC1C(OC(N)=O)C(O)C(Oc2ccc3c(O)c(NC(=O)c4ccc(O)c(CC=C(C)C)c4)c(=O)oc3c2C)OC1(C)C
Second compound 0.0316 µM
  IC50: > 10 µM
Second compound 0.1 µM
  IC50: > 10 µM
Second compound 0.316 µM
  IC50: > 10 µM
Second compound 1 µM
  IC50: > 10 µM
Second compound 3.16 µM
  IC50: > 10 µM
Second compound 10 µM
  IC50: > 10 µM
[1]
  viability, T/C: 106%
[2]
  viability, T/C: 103%
[3]
  viability, T/C: 111%
[4]
  viability, T/C: 107%
[5]
  viability, T/C: 108%
[6]
  viability, T/C: 99.1%
[7]
  viability, T/C: 114%
[8]
  viability, T/C: 104%
[9]
  viability, T/C: 105%
[10]
  viability, T/C: 96.5%
[11]
  viability, T/C: 111%
[12]
  viability, T/C: 117%
[13]
  viability, T/C: 107%
[14]
  viability, T/C: 112%
[15]
  viability, T/C: 106%
[16]
  viability, T/C: 109%
[17]
  viability, T/C: 110%
[18]
  viability, T/C: 97.8%
[19]
  viability, T/C: 108%
[20]
  viability, T/C: 108%
[21]
  viability, T/C: 105%
[22]
  viability, T/C: 101%
[23]
  viability, T/C: 120%
[24]
  viability, T/C: 99.3%
[25]
  viability, T/C: 117%
[26]
  viability, T/C: 109%
[27]
  viability, T/C: 113%
[28]
  viability, T/C: 105%
[29]
  viability, T/C: 115%
[30]
  viability, T/C: 97.3%
[31]
  viability, T/C: 116%
[32]
  viability, T/C: 118%
[33]
  viability, T/C: 110%
[34]
  viability, T/C: 109%
[35]
  viability, T/C: 117%
[36]
  viability, T/C: 122%

## Nc1ccn(C2OC(CO)C(O)C2(F)F)c(=O)n1 (stereo unspecified) + COC1C(OC(N)=O)C(O)C(Oc2ccc3c(O)c(NC(=O)c4ccc(O)c(CC=C(C)C)c4)c(=O)oc3c2C)OC1(C)C
Second compound 0.0316 µM
  IC50: > 10 µM
Second compound 0.1 µM
  IC50: > 10 µM
Second compound 0.316 µM
  IC50: > 10 µM
Second compound 1 µM
  IC50: > 10 µM
Second compound 3.16 µM
  IC50: > 10 µM
Second compound 10 µM
  IC50: > 10 µM
[1]
  viability, T/C: 82%
[2]
  viability, T/C: 81.5%
[3]
  viability, T/C: 75.1%
[4]
  viability, T/C: 72.2%
[5]
  viability, T/C: 63.9%
[6]
  viability, T/C: 55.2%
[7]
  viability, T/C: 91.1%
[8]
  viability, T/C: 82.6%
[9]
  viability, T/C: 73.1%
[10]
  viability, T/C: 70%
[11]
  viability, T/C: 68.3%
[12]
  viability, T/C: 50.5%
[13]
  viability, T/C: 96.2%
[14]
  viability, T/C: 78.5%
[15]
  viability, T/C: 76.6%
[16]
  viability, T/C: 70.2%
[17]
  viability, T/C: 63.5%
[18]
  viability, T/C: 47.6%
[19]
  viability, T/C: 92%
[20]
  viability, T/C: 84%
[21]
  viability, T/C: 71.8%
[22]
  viability, T/C: 70%
[23]
  viability, T/C: 62.5%
[24]
  viability, T/C: 48.6%
[25]
  viability, T/C: 89.2%
[26]
  viability, T/C: 81.9%
[27]
  viability, T/C: 72.5%
[28]
  viability, T/C: 67%
[29]
  viability, T/C: 63.2%
[30]
  viability, T/C: 52.1%
[31]
  viability, T/C: 93.1%
[32]
  viability, T/C: 82.3%
[33]
  viability, T/C: 75.3%
[34]
  viability, T/C: 73.1%
[35]
  viability, T/C: 66.4%
[36]
  viability, T/C: 52.1%

## O=C(Nc1ccc(O)c(NS(=O)(=O)c2ccc(F)cc2)c1)c1ccc(-c2ccccc2)cc1 + COC1C(OC(N)=O)C(O)C(Oc2ccc3c(O)c(NC(=O)c4ccc(O)c(CC=C(C)C)c4)c(=O)oc3c2C)OC1(C)C
Second compound 0.0316 µM
  IC50: > 10 µM
Second compound 0.1 µM
  IC50: > 10 µM
Second compound 0.316 µM
  IC50: > 10 µM
Second compound 1 µM
  IC50: > 10 µM
Second compound 3.16 µM
  IC50: > 10 µM
Second compound 10 µM
  IC50: > 10 µM
[1]
  viability, T/C: 104%
[2]
  viability, T/C: 97.7%
[3]
  viability, T/C: 105%
[4]
  viability, T/C: 103%
[5]
  viability, T/C: 103%
[6]
  viability, T/C: 89.3%
[7]
  viability, T/C: 116%
[8]
  viability, T/C: 99.9%
[9]
  viability, T/C: 106%
[10]
  viability, T/C: 102%
[11]
  viability, T/C: 103%
[12]
  viability, T/C: 95.8%
[13]
  viability, T/C: 103%
[14]
  viability, T/C: 103%
[15]
  viability, T/C: 110%
[16]
  viability, T/C: 105%
[17]
  viability, T/C: 104%
[18]
  viability, T/C: 104%
[19]
  viability, T/C: 110%
[20]
  viability, T/C: 107%
[21]
  viability, T/C: 107%
[22]
  viability, T/C: 106%
[23]
  viability, T/C: 108%
[24]
  viability, T/C: 90.8%
[25]
  viability, T/C: 108%
[26]
  viability, T/C: 101%
[27]
  viability, T/C: 102%
[28]
  viability, T/C: 110%
[29]
  viability, T/C: 115%
[30]
  viability, T/C: 89.7%
[31]
  viability, T/C: 104%
[32]
  viability, T/C: 100%
[33]
  viability, T/C: 112%
[34]
  viability, T/C: 105%
[35]
  viability, T/C: 114%
[36]
  viability, T/C: 88.3%

From PubChem BioAssay AID1963840 (Molecular Pharmacology Branch, DTP, NCI, 2024)
